According to patent publication US8569298B2, “Pyridine compounds” (Astrazeneca AB, priority 2008, dated 2013):

molecular target: T1, FAK enzyme (6 His tagged kinase domain, GenBank NP—722560) (Homo sapiens, UniProt Q05397); assay: In vitro enzyme assay (a): sandwich ELISA of FAK tyrosine kinase activity on polyGAT peptide, TMB colorimetric endpoint; type: biochemical; conditions: in vitro Enzyme Assay test (a); ATP at Km; geometric mean of n > 1 measurements, values marked * tested once
T1 construct: 6 His; made in house; host or cells: insect cell culture infected with baculovirus
Outline: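 Recombinant His-tagged FAK kinase domain (baculovirus/insect cells) phosphorylated plate-coated polyGAT with ATP at Km, MgCl2/MnCl2, HEPES pH 7.4, 25 min at room temperature before EDTA stop. Phosphotyrosine detected by HRP-4G10 antibody and TMB absorbance at 450 nm; IC50 from 12-point curve anchored to DMSO and staurosporine controls.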

T1 sequence (Q05397 422-680 limits assumed): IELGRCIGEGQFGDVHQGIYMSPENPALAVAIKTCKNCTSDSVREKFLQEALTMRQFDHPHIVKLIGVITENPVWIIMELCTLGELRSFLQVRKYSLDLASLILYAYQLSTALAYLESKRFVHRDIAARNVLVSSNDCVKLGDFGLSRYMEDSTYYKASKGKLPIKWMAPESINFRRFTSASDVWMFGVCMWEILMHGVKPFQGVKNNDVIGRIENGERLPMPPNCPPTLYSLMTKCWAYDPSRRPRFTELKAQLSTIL

Structure (SMILES)	IC50 [nM]
CCn1ccc(Nc2cc(Nc3ccccc3C(=O)NC)c(C(F)(F)F)cn2)n1 [Example 8.06, 2-[[2-[(1-ethylpyrazol-3-yl)amino]-5-(trifluoromethyl)-4-pyridyl]amino]-N-methyl-benzamide]	11
CNC(=O)c1ccccc1Nc1cc(Nc2cc(C3CC3)nn2C)ncc1C(F)(F)F [Example 8.07, 2-[[2-[(5-cyclopropyl-2-methyl-pyrazol-3-yl)amino]-5-(trifluoromethyl)-4-pyridyl]amino]-N-methyl-benzamide]	26
CCn1nccc1Nc1cc(Nc2ccccc2C(=O)NC)c(C(F)(F)F)cn1 [Example 8.08, 2-[[2-[(2-ethylpyrazol-3-yl)amino]-5-(trifluoromethyl)-4-pyridyl]amino]-N-methyl-benzamide]	10
CNC(=O)c1ccccc1Nc1cc(Nc2cnn(CC(C)C)c2)ncc1C(F)(F)F [Example 8.09, 2-[[2-[(1-isobutylpyrazol-4-yl)amino]-5-(trifluoromethyl)-4-pyridyl]amino]-N-methyl-benzamide]	69
CNC(=O)c1ccccc1Nc1cc(Nc2c(C)nn(C)c2C)ncc1C(F)(F)F [Example 8.10, N-methyl-2-[[5-(trifluoromethyl)-2-[(1,3,5-trimethylpyrazol-4-yl)amino]-4-pyridyl]amino]benzamide]	13
CNC(=O)c1ccccc1Nc1cc(Nc2cnn(C(C)C)c2)ncc1C(F)(F)F [Example 8.11, 2-[[2-[(1-isopropylpyrazol-4-yl)amino]-5-(trifluoromethyl)-4-pyridyl]amino]-N-methyl-benzamide]	34
CNC(=O)c1ccccc1Nc1cc(Nc2cn(C)nc2C(F)(F)F)ncc1C(F)(F)F [Example 8.12, N-methyl-2-[[2-[[1-methyl-3-(trifluoromethyl)pyrazol-4-yl]amino]-5-(trifluoromethyl)-4-pyridyl]amino]benzamide]	18
CNC(=O)c1cc(OC)ccc1Nc1cc(Nc2cn(C)nc2C)ncc1C(F)(F)F [Example 10.01, 2-[[2-[(1,3-dimethylpyrazol-4-yl)amino]-5-(trifluoromethyl)-4-pyridyl]amino]-5-methoxy-N-methyl-benzamide]	8
CNC(=O)c1ccc(C)cc1Nc1cc(Nc2cn(C)nc2C)ncc1C(F)(F)F [Example 10.02, 2-[[2-[(1,3-Dimethylpyrazol-4-yl)amino]-5-(trifluoromethyl)-4-pyridyl]amino]-N,4-dimethyl-benzamide]	13
CNC(=O)c1cc(C)ccc1Nc1cc(Nc2cn(C)nc2C)ncc1C(F)(F)F [Example 10.03, 2-[[2-[(1,3-dimethylpyrazol-4-yl)amino]-5-(trifluoromethyl)-4-pyridyl]amino]-N,5-dimethyl-benzamide]	2
CNC(=O)c1ccc(OC)cc1Nc1cc(Nc2cn(C)nc2C)ncc1C(F)(F)F [Example 10.04, 2-[[2-[(1,3-dimethylpyrazol-4-yl)amino]-5-(trifluoromethyl)-4-pyridyl]amino]-4-methoxy-N-methyl-benzamide]	53
CNC(=O)c1ccc(F)cc1Nc1cc(Nc2cn(C)nc2C)ncc1C(F)(F)F [Example 10.05, 2-[[2-[(1,3-dimethylpyrazol-4-yl)amino]-5-(trifluoromethyl)-4-pyridyl]amino]-4-fluoro-N-methyl-benzamide]	9
CNC(=O)c1cccc(F)c1Nc1cc(Nc2cn(C)nc2C)ncc1C(F)(F)F [Example 10.06, 2-[[2-[(1,3-dimethylpyrazol-4-yl)amino]-5-(trifluoromethyl)-4-pyridyl]amino]-3-fluoro-N-methyl-benzamide]	10
CNC(=O)c1cc(Cl)ccc1Nc1cc(Nc2cn(C)nc2C)ncc1C(F)(F)F [Example 10.07, 5-chloro-2-[[2-[(1,3-dimethylpyrazol-4-yl)amino]-5-(trifluoromethyl)-4-pyridyl]amino]-N-methyl-benzamide]	14
CONC(=O)c1ccccc1Nc1cc(Nc2cn(C)nc2C)ncc1C(F)(F)F [Example 10.08, 2-[[2-[(1,3-dimethylpyrazol-4-yl)amino]-5-(trifluoromethyl)-4-pyridyl]amino]-N-methoxy-benzamide]	5
CNC(=O)c1ccc(Cl)cc1Nc1cc(Nc2cn(C)nc2C)ncc1C(F)(F)F [Example 10.09, 4-chloro-2-[[2-[(1,3-dimethylpyrazol-4-yl)amino]-5-(trifluoromethyl)-4-pyridyl]amino]-N-methyl-benzamide]	7
CNC(=O)c1cc(SC)ccc1Nc1cc(Nc2cn(C)nc2C)ncc1C(F)(F)F [Example 10.10, 2-[[2-[(1,3-dimethylpyrazol-4-yl)amino]-5-(trifluoromethyl)-4-pyridyl]amino]-N-methyl-5-methylsulfanyl-benzamide]	11
CNC(=O)c1cc(N2CCOCC2)ccc1Nc1cc(Nc2cn(C)nc2C)ncc1C(F)(F)F [Example 10.11, 2-[[2-[(1,3-dimethylpyrazol-4-yl)amino]-5-(trifluoromethyl)-4-pyridyl]amino]-N-methyl-5-morpholino-benzamide]	26
CNC(=O)c1ccc(S(C)(=O)=O)cc1Nc1cc(Nc2cn(C)nc2C)ncc1C(F)(F)F [Example 10.13, 2-[[2-[(1,3-dimethylpyrazol-4-yl)amino]-5-(trifluoromethyl)-4-pyridyl]amino]-N-methyl-4-methylsulfonyl-benzamide]	462

Further lines, results first:

IC50 [nM]	Structure (SMILES)
5	CNC(=O)c1c(Nc2cc(Nc3cc(C)nn3C)ncc2C(F)(F)F)cccc1OC [Example 11.01, 2-[[2-[(2,5-dimethylpyrazol-3-yl)amino]-5-(trifluoromethyl)-4-pyridyl]amino]-6-methoxy-N-methyl-benzamide]
915	CNC(=O)c1nn(C)cc1Nc1cc(Nc2cccc3c2C(=O)N(C)CC3)c(Cl)cn1 [Example 12.01, 4-[[5-chloro-4-[(2-methyl-1-oxo-3,4-dihydroisoquinolin-8-yl)amino]-2-pyridyl]amino]-N,1-dimethyl-pyrazole-3-carboxamide]
1360	CN(C)C(=O)c1nn(C)cc1Nc1cc(Nc2cccc3c2C(=O)N(C)CC3)c(Cl)cn1 [Example 12.02, 4-[[5-chloro-4-[(2-methyl-1-oxo-3,4-dihydroisoquinolin-8-yl)amino]-2-pyridyl]amino]-N,N,1-trimethyl-pyrazole-3-carboxamide]
2	Cc1n[nH]cc1Nc1cc(Nc2cccc3c2C(=O)N(C)CC3)c(Cl)cn1 [Example 12.03, 8-[[5-chloro-2-[(3-methyl-1H-pyrazol-4-yl)amino]-4-pyridyl]amino]-2-methyl-3,4-dihydroisoquinolin-1-one]
22	COCc1nn(C)cc1Nc1cc(Nc2cccc3c2C(=O)N(C)CC3)c(Cl)cn1 [Example 12.04, 8-[[5-chloro-2-[[3-(methoxymethyl)-1-methyl-pyrazol-4-yl]amino]-4-pyridyl]amino]-2-methyl-3,4-dihydroisoquinolin-1-one]
20	CN1CCc2cccc(Nc3cc(Nc4cn(C)nc4C#N)ncc3Cl)c2C1=O [Example 12.05, 4-[[5-chloro-4-[(2-methyl-1-oxo-3,4-dihydroisoquinolin-8-yl)amino]-2-pyridyl]amino]-1-methyl-pyrazole-3-carbonitrile]
8	COc1nn(C)cc1Nc1cc(Nc2cccc3c2C(=O)N(C)CC3)c(Cl)cn1 [Example 12.06, 8-[[5-chloro-2-[(3-methoxy-1-methyl-pyrazol-4-yl)amino]-4-pyridyl]amino]-2-methyl-3,4-dihydroisoquinolin-1-one]
